Experiments:
[1] = compound: T1, C[C@H]1CNCCN1c1nccc(-c2noc3c2CCC[C@@]32CCCc3sc(N)c(C#N)c32)n1 [BI-2493]; conditions: 5 days
Description: (§1)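 PRISM pooled barcoded cancer cell line viability screen (Broad Institute) with BI-2493 at 8 doses in threefold dilutions from 0.00457 to 10 µmol/L, 5-day treatment; curves fitted per cell line. IC50 is undefined (placeholder) for resistant lines. AUC is capped at 1, and sensitivity is reported as 1 − AUC.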

[2] = compound: T1, BI-2493; assay: 1 - AUC of viability dose-response curve (sensitivity) (fraction); higher = more sensitive; conditions: 5 days
Description: as §1

ZR751_BREAST
IC50 of cell viability [1]: 4.57 µM | 1 - AUC of viability dose-response curve [2]: 0.1
